Measurements taken from patent US10221171B2, “Oxathiazole thiazolium Hsp 70 inhibitors” (THE REGENTS OF THE UNIVERSITY OF CALIFORNIA, priority 2015, dated 2019).
Where two headings read alike, the source gives them in different places.

Tests used:
Xenografts of MCF7 cells = assay: Hsp70 client destabilization in MCF7 xenografts, western blot; format: in vivo; settings: 5 mg/kg/day for three days, western blot of tumors
Method: Xenografts of MCF7 cells were treated by delivery of compound in saline 5 mg/kg/day dosed for three days, after which tumors were harvested for western blot. Results from three separate animals are shown.

IMR-90 = assay: Cell viability, IMR-90; format: cell-based; settings: for EC50: Homo sapiens, IMR-90, Table 2; for SI IMR-90/MCF-7: ratio of EC50 IMR-90 to EC50 MCF-7
Method: Cells were then treated with compound at various concentrations in 0.2 mL media. After the 72-hour incubation period, cells were washed in PBS (3×100 μL), and 10 μL MTT reagent was added with 100 μL fresh media. Cells were then incubated for 4 hr in a humidified chamber at 37° C. with 5% CO2. Insoluble formazan crystals were solubilized by addition of 0.1 mL detergent solution (4 hr at room temp., dark). Resulting colored solutions were then quantified at an absorbance of 570 nm.

[1] = test system: Hsp70 clients in MCF7 cells; assay: Western blot of Hsp70 clients in MCF7 cells; format: cell-based; settings: 24 hrs
Method: Cells were treated for 24 hrs with compound, lysed and Western blots performed.

[2] = Pharmacokinetics in CD1 mice, single i.p. injection, plasma by HPLC; format: in vivo
Method: A single injection of compound was delivered to CD1 mice by i.p. and the plasma collected at the indicated times. Compound levels were calculated by HPLC, using a standard curve.

[3] = test system: multiple myeloma cell lines; assay: MTT cell viability in multiple myeloma cell lines; format: cell-based; settings: cell viability after 48 hrs, percentage of solvent control (1% DMSO)
Description: Results are shown as a percentage of a solvent control (1% DMSO). Results are the average of experiments performed in triplicate. Error bars represent SEM.

MCF-7 = assay: MTT cell viability assay, MCF-7; format: cell-based; settings: for IC50: read-out: IC50/μM MCF-7; for EC50: Table 2
Microsomal stability = format: in vitro ADME
MEF (C57BL/6) = assay: MTT cell viability assay, MEF (C57BL/6); format: cell-based; settings: for IC50 / EC50: Mus musculus; for EC50: Table 2; for SI MEF/MCF-7: ratio of EC50 MEF to EC50 MCF-7
[4] = Tolerability in mice based on weight; format: in vivo; settings: daily i.p. 5 mg/kg/day, male CD1 mice
Method: Analogs were delivered daily to male CD1 mice by i.p. at 5 mg/kg/day. Five mice per group. Error bars represent SEM.

MDA-MB-231 = assay: MTT cell viability assay, MDA-MB-231; format: cell-based; settings: Homo sapiens, MDA-MB-231, 72-hour incubation
Solubility = format: physicochemical
[5] = MTT, 72-hour incubation, read-out: IC50/μM MEF (C57BL/6)
[6] = 72 h, read-out: IC50/μM MEF (C57BL/6), MTT, 72-hour incubation
[7] = Homo sapiens, MCF7, MTT, 72-hour incubation

| IC50 (MCF-7; [7]) [µM] | solubility (Solubility) [µM] | SMILES | EC50 (IMR-90) [µM] | EC50 (MCF-7; Homo sapiens, MCF7) [µM] | Microsomal min (Microsomal stability) [min] | IC50 (MEF (C57BL/6); [5]) [µM] | EC50 (MEF (C57BL/6)) [µM] | tolerated in mice, based on weight [4] | IC50 (MDA-MB-231) [µM] | SI IMR-90/MCF-7 (IMR-90) | SI MEF/MCF-7 (MEF (C57BL/6)) | other results |
| --- | --- | --- | --- | --- | --- | --- | --- | --- | --- | --- | --- | --- |
|  |  | CCc1ccc2c(c1)S/C(=c1/s/c(=C\c3scc[n+]3Cc3ccccc3C(=O)OC)n(CC)c1=O)N2C.[Cl-] [JG-345] | 3.2 ± 0.7 | 0.049 ± 0.003 | 25 | 1 ± 0.1 | 1 ± 0.1 | tolerated in mice | 0.046 ± 0.006 |  |  | destabilization of Hsp70 clients in vivo (Xenografts of MCF7 cells): destabilized Hsp70 clients in vivo; destabilization of Hsp70 clients (c-Raf and other clients) [1]: destabilize c-Raf and other clients; t1/2/h [2]: 11.4 h; anti-proliferative activity against multiple myeloma cell lines [3]: anti-proliferative activity; IC50 (MCF-7; Homo sapiens, MCF7, 72 h): 0.049 ± 0.003 µM |
|  |  | CCn1c(=O)/c(=C2\Sc3cc(Br)ccc3N2C)s/c1=C\c1scc[n+]1Cc1ccc(C(F)(F)F)o1.[Cl-] [JG-294] | 9.8 ± 2 | 0.1 ± 0.01 | >60 |  | 3.5 ± 0.4 | tolerated in mice | 0.18 ± 0.01 |  |  | AUC0-∞/nM × h [2]: 2.429 µM·h; Tmax ([2]; mouse, ip): 2 h; half-life ([2]; mouse, ip, read-out: t1/2/h (converted)): 29.8 h; IC50 (MCF-7; Homo sapiens, MCF7, 72 h): 0.1 ± 0.01 µM; IC50 (MEF (C57BL/6); [6]): 3.5 ± 0.4 µM |
| 0.089 ± 0.006 | 16 | CCn1c(=O)/c(=C2\Sc3cc(SC)ccc3N2C)s/c1=C\c1scc[n+]1Cc1ccccc1SC(F)(F)F.[Cl-] [JG-356] | 1.5 ± 0.1 | 0.089 ± 0.006 | 23 | 1.9 ± 0.1 | 1.9 ± 0.1 |  | 0.09 ± 0.005 | 16 | 21 |  |
|  |  | CCc1ccc2c(c1)S/C(=c1/s/c(=C\c3scc[n+]3Cc3ccc(C(F)(F)F)o3)n(CC)c1=O)N2C.[Cl-] [JG-300] | 3.3 ± 0.3 | 0.11 ± 0.01 | 37 |  | 1.4 ± 0.1 |  | 0.1 ± 0.01 |  |  | IC50 (MCF-7; Homo sapiens, MCF7, 72 h, MTT, 72-hour incubation): 0.11 ± 0.01 µM; IC50 (MEF (C57BL/6); [6]): 1.4 ± 0.06 µM |
| 0.098 ± 0.009 | 16 | CCn1c(=O)/c(=C2\Sc3cc(SC)ccc3N2C)s/c1=C\c1scc[n+]1Cc1ccccc1OC(F)(F)F.[Cl-] [JG-311] | 3.5 ± 0.6 | 0.098 ± 0.009 | 22 | 2 ± 0.1 | 2 ± 0.1 |  | 0.14 ± 0.01 | 35 | 20 |  |
| 0.1 ± 0.01 | 16 | CCn1c(=O)/c(=C2\Sc3cc(SC)ccc3N2C)s/c1=C\c1scc[n+]1Cc1ccccc1C(F)(F)F.[Cl-] [JG-312] | > 10 | 0.1 ± 0.01 | 23 | 3.2 ± 0.2 | 3.2 ± 0.2 |  | 0.14 ± 0.01 | >100 | 32 |  |
|  | 31 | CCn1c(=O)/c(=C2\Sc3cc(Cl)ccc3N2C)s/c1=C\c1scc[n+]1Cc1ccccc1.[Cl-] [JG-98, reference compound] |  |  | 37 |  |  |  |  |  |  | EC50 (MCF-7): 0.71 ± 0.22 µM |

| SMILES | IC50 (MCF-7; [7]) [µM] | solubility (Solubility) [µM] | EC50 (IMR-90) [µM] | EC50 (MCF-7; Homo sapiens, MCF7) [µM] | Microsomal min (Microsomal stability) [min] | IC50 (MEF (C57BL/6); [5]) [µM] | EC50 (MEF (C57BL/6)) [µM] | tolerated in mice, based on weight [4] | IC50 (MDA-MB-231) [µM] | SI IMR-90/MCF-7 (IMR-90) | SI MEF/MCF-7 (MEF (C57BL/6)) | other results |
| --- | --- | --- | --- | --- | --- | --- | --- | --- | --- | --- | --- | --- |
| CCn1c(=O)/c(=C2\Sc3cc(Cl)ccc3N2C)s/c1=C\c1scc[n+]1Cc1ccc(Br)s1.[Cl-] [JG-231, reference compound] |  | 16 |  |  | >60 |  |  | tolerated in mice |  |  |  | destabilization of Hsp70 clients (c-Raf and other clients) [1]: destabilize c-Raf and other clients; EC50 (MCF-7): 0.12 ± 0.01 µM |
